ChEMBL document CHEMBL1124261 (J Med Chem, 1988)

Key:
CCRF-CEM [1] = experiment: Tested for cell-growth inhibition against human leukemic lymphoblast CEM cells; format: functional, cell-based
CCRF-CEM [2] = experiment: Tested for cell-growth inhibition against human leukemic lymphoblast CEM/MTX cells; format: functional, cell-based
L1210 [3] = experiment: Mean change in weight of mice infected with L1210 leukemia after 7 days after an intraperitoneal dose of 80 mg/kg; format: functional, Mus musculus
L1210 [4] = experiment: Range for the survival of mice infected with L1210 leukemia after an intraperitoneal dose of 20 mg/kg for 9 days; Range is 13-14; format: functional, Mus musculus
L1210 [5] = experiment: Range for the survival of mice infected with L1210 leukemia after an intraperitoneal dose of 40 mg/kg for 9 days; Range is 14-16; format: functional, Mus musculus
L1210 [6] = experiment: Range for the survival of mice infected with L1210 leukemia after an intraperitoneal dose of 60 mg/kg for 9 days; Range is 12-19; format: functional, Mus musculus
L1210 ( R81) = experiment: Tested for cell-growth inhibition against mouse leukemic L1210/R81 cells; format: functional, cell-based
L1210 [7] = experiment: Increase in life span of mice infected with L1210 leukemia after an intraperitoneal dose of 20 mg/kg for 9 days; format: functional; settings: Mus musculus, L1210, ip, 216 h
L1210 [8] = experiment: Increase in life span of mice infected with L1210 leukemia after an intraperitoneal dose of 40 mg/kg for 9 days; format: functional; settings: Mus musculus, L1210, ip, 216 h
L1210 [9] = experiment: Increase in life span of mice infected with L1210 leukemia after an intraperitoneal dose of 60 mg/kg for 9 days; format: functional; settings: Mus musculus, L1210, ip, 216 h
L1210 [10] = experiment: Increase in life span of mice infected with L1210 leukemia after an intraperitoneal dose of 80 mg/kg for 9 days; format: functional; settings: Mus musculus, L1210, ip, 216 h
L1210 [11] = experiment: Mean change in weight of mice infected with L1210 leukemia after 7 days after an intraperitoneal dose of 20 mg/kg; format: functional, Mus musculus
L1210 [12] = experiment: Mean change in weight of mice infected with L1210 leukemia after 7 days after an intraperitoneal dose of 40 mg/kg; format: functional, Mus musculus
L1210 [13] = experiment: Mean change in weight of mice infected with L1210 leukemia after 7 days after an intraperitoneal dose of 60 mg/kg; format: functional, Mus musculus
L1210 [14] = experiment: Tested for cell-growth inhibition against mouse leukemic L1210 cells; format: functional, cell-based
L1210 [15] = experiment: Mean survival of mice infected with L1210 leukemia after an intraperitoneal dose of 40 mg/kg for 9 days; format: functional, Mus musculus
L1210 [16] = experiment: Mean survival of mice infected with L1210 leukemia after an intraperitoneal dose of 60 mg/kg for 9 days; format: functional, Mus musculus
L1210 [17] = experiment: Range for the survival of mice infected with L1210 leukemia after an intraperitoneal dose of 80 mg/kg for 9 days; Range is 12-18; format: functional, Mus musculus
L1210 [18] = experiment: Mean survival of mice infected with L1210 leukemia after an intraperitoneal dose of 80 mg/kg for 9 days; format: functional, Mus musculus
L1210 [19] = experiment: Mean survival of mice infected with L1210 leukemia after an intraperitoneal dose of 20 mg/kg for 9 days; format: functional, Mus musculus
[20] = target: T1, Folylpolyglutamate synthase, mitochondrial (Mus musculus) (UniProt P48760); experiment: (§1) Tested for inhibition against purified Folyl-polyglutamate synthase from mouse liver; format: functional; settings: concentration not given here
T1 sequence (whole entry): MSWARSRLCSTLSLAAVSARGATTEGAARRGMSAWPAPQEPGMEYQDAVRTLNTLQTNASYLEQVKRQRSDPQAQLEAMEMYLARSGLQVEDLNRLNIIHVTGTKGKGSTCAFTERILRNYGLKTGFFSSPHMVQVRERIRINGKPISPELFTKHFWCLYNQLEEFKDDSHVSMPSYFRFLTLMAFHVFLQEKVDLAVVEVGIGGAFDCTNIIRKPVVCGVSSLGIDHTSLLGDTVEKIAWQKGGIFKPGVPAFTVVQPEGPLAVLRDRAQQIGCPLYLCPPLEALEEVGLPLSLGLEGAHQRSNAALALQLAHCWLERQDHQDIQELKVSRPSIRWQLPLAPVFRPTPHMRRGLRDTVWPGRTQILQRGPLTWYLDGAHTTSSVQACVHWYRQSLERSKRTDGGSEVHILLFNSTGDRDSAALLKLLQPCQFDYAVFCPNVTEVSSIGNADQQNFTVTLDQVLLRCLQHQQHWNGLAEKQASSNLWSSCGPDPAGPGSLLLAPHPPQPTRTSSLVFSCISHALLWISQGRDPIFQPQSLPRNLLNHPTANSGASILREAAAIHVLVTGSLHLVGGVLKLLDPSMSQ

Dihydrofolate reductase = target: T2, Dihydrofolate reductase (Mus musculus, UniProt P00375); experiment: biochemical
T2 sequence (P00375 whole entry): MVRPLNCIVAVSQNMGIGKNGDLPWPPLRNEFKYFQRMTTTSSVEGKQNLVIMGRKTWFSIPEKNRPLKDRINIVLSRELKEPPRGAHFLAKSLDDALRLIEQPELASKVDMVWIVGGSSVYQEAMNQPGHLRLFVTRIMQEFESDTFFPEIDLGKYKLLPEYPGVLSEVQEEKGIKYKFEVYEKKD
Description: Tested for inhibition against purified Dihydrofolate reductase from L1210 murine leukemia cells

[21] = target: T3, Folylpolyglutamate synthase, mitochondrial (Homo sapiens, UniProt Q05932); experiment: Inhibitory constant against purified Folyl-polyglutamate synthase obtained from human
T3 sequence (Q05932 whole entry): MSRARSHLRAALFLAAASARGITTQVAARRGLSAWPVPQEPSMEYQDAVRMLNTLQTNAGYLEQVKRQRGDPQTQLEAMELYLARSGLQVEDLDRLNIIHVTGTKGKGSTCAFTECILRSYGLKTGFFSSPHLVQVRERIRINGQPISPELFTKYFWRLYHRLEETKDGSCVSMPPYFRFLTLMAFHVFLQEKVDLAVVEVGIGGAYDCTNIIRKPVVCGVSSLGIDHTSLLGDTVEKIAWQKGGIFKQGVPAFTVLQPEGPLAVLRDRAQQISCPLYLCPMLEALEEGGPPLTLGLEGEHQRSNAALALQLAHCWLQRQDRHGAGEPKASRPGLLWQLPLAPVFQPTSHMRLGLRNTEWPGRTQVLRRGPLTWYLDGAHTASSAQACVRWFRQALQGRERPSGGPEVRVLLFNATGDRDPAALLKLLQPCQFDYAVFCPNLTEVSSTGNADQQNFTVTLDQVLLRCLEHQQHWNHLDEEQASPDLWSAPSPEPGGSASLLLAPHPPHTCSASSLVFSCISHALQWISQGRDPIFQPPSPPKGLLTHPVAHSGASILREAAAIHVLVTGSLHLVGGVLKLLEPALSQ

[22] = target: T4, Folylpolyglutamate synthase, mitochondrial (Mus musculus, UniProt P48760); experiment: Inhibitory constant against purified Folyl-polyglutamate synthase obtained from mouse liver
T4 sequence (P48760 whole entry): T1 sequence (whole entry)

L1210 [23] = experiment: Range for the survival of mice infected with L1210 leukemia after an intraperitoneal dose of 60 mg/kg for 9 days; Range is […]; format: functional, Mus musculus
L1210 [24] = experiment: Range for the survival of mice infected with L1210 leukemia after an intraperitoneal dose of 20 mg/kg for 9 days; Range is 16-19; format: functional, Mus musculus
L1210 [25] = experiment: Range for the survival of mice infected with L1210 leukemia after an intraperitoneal dose of 40 mg/kg for 9 days; Range is 14-24; format: functional, Mus musculus
Mus musculus [26] = species on record: Mus musculus; experiment: as §1; format: functional; settings: dose or concentration not given here
Mus musculus [27] = species on record: Mus musculus; experiment: as §1; settings: concentration not given here
L1210 [28] = experiment: Range for the survival of mice infected with L1210 leukemia after an intraperitoneal dose of 20 mg/kg for 9 days; Range is 19-22; format: functional, Mus musculus
L1210 [29] = experiment: Range for the survival of mice infected with L1210 leukemia after an intraperitoneal dose of 40 mg/kg for 9 days; Range is 12-25; format: functional, Mus musculus
L1210 [30] = experiment: Range for the survival of mice infected with L1210 leukemia after an intraperitoneal dose of 60 mg/kg for 9 days; Range is 9-24; format: functional, Mus musculus
L1210 [31] = experiment: Range for the survival of mice infected with L1210 leukemia after an intraperitoneal dose of 80 mg/kg for 9 days; Range is 9-11; format: functional, Mus musculus

SMILES | IC50 (CCRF-CEM [1]) [nM] | IC50 (CCRF-CEM [2]) [nM] | Weight change (L1210 [3]) [%] | IC50 (L1210 ( R81)) [nM] | ILS at 20 mg/kg (L1210 [7]) [%] | ILS at 40 mg/kg (L1210 [8]) [%] | ILS at 60 mg/kg (L1210 [9]) [%] | ILS at 80 mg/kg (L1210 [10]) [%] | Weight change (L1210 [11]) [%] | Weight change (L1210 [12]) [%] | Weight change (L1210 [13]) [%] | IC50 (L1210 [14]) [nM] | Survival (L1210 [15]) [days] | Survival (L1210 [16]) [days] | Range (L1210 [17]) [days] | Survival (L1210 [18]) [days] | Survival (L1210 [19]) [days] | IC50 (Dihydrofolate reductase) [nM] | further results
CN(Cc1cnc2nc(N)nc(N)c2n1)c1ccc(C(=O)NC(CCCCCCCC(=O)O)C(=O)O)cc1 (centres undefined) | 62 | 1000 | 3 | 73000 | 55 | 66 | 74 | 73 | 7 | 6 | 6 | 4.2 | 14.6 | 15.3 | 12 | 15.2 | 13.6 | 32 | Range (L1210 [4]): 13 days; Range (L1210 [5]): 14 days; Range (L1210 [6]): 12 days; inhibition [20]: 43%
Nc1nc(N)c2nc(CNc3ccc(C(=O)N[C@@H](CCC(=O)O)C(=O)O)cc3)cnc2n1 [AMINOPTERIN] | – | – | – | – | – | – | – | – | – | – | – | – | – | – | – | – | – | 25 | –
CN(Cc1cnc2nc(N)nc(N)c2n1)c1ccc(C(=O)N[C@@H](CCCN)C(=O)O)cc1 | – | – | – | – | – | – | – | – | – | – | – | – | – | – | – | – | – | – | Ki [21]: 4000 nM; Ki [22]: 20000 nM
CN(Cc1cnc2nc(N)nc(N)c2n1)c1ccc(C(=O)NC(CCCCCCCCCC(=O)O)C(=O)O)cc1 (centres undefined) | 16 | 10000 | 2 | 58000 | 98 | 95 | 100 | 73 | 6 | 3 | 5 | 7.1 | 17.2 | 17.6 | 12 | 15.2 | 17.4 | 34 | Range (L1210 [23]): 15 days; Range (L1210 [24]): 16 days; Range (L1210 [25]): 14 days; inhibition (Mus musculus [26]): 53%
CN(Cc1cnc2nc(N)nc(N)c2n1)c1ccc(C(=O)NC(CCCCCCCCCCC(=O)O)C(=O)O)cc1 (centres undefined) | 640 | 10000 | 4 | 56000 | 137 | 116 | 97 | 14 | 3 | 3 | 2 | 26 | 19 | 17.3 | – | 10 | 20.4 | 26 | inhibition (Mus musculus [27]): 59%; Range (L1210 [28]): 19 days; Range (L1210 [29]): 12 days; Range (L1210 [30]): 9 days; Range (L1210 [31]): 9 days
